Experimental data as given in paper PMC8745263 (International Journal of Molecular Sciences, 2021).
Entries after “also recorded” stand apart in the source; their conditions may differ. Read-outs that look alike come from different tables or passages of the source. One block for each compound: values may come before it.

Key:
[1] = biological target: T1, APEH (partially purified from human red blood cells) (Homo sapiens, UniProt P13798); test: APEH enzyme inhibition assay with substrate Ac-Met-AMC; type: biochemical; conditions: inhibitor 62 µM, APEH sample 0.7 μg, pre-incubated 30 min at 37 °C, then Ac-Met-AMC added; data not shown
T1 construct: incubated with APEH partially purified from human blood cells; from tissue; host or cells: human red blood cells (erythrocyte hemolysate from donors' blood)
T1 sequence (P13798 1-732): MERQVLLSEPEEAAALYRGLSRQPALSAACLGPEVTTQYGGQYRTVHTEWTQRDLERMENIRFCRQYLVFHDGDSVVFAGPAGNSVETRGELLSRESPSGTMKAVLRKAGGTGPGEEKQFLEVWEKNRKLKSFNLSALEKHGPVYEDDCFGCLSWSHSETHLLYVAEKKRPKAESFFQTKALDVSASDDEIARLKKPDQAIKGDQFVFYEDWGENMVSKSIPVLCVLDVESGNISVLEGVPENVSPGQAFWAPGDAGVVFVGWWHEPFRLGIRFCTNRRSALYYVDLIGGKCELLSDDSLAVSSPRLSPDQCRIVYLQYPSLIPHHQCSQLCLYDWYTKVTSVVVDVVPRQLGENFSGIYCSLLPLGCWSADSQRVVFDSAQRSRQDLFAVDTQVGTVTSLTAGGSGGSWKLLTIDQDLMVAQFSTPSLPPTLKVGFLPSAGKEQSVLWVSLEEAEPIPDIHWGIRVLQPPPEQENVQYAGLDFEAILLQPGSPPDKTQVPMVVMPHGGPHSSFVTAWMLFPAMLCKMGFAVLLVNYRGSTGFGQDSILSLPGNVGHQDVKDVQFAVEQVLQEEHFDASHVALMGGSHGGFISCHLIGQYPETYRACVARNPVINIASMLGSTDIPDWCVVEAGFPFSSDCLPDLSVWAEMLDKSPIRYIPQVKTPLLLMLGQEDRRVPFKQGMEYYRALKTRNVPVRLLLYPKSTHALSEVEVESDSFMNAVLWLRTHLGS
Method: Human APEH was obtained as a partially purified product from the red blood cells by a combination of anion exchange and gel filtration chromatography as described. The purification procedure was monitored by SDS-PAGE analysis of active pooled fractions (Supplementary Figure S3). Specifically, each peak fraction eluted from the gel filtration column was assayed with the specific APEH substrate Ac-Met-AMC and analyzed by Western blotting to assess the identity of the enzyme, using the commercial APEH from porcine liver (APEHpl) as control (Supplementary Figure S4A,B). The molecular mass determined by SDS-PAGE of the partially purified protein was 75 kDa, in agreement with that predicted on the basis of the amino acid sequence. Moreover, gel filtration chromatography on Superdex 200 column allowed estimating a molecular mass for the native APEH of […] as calculated by the calibration curve (Supplementary Figure S4A), confirming that the enzyme is a homo-tetramer composed of four 75 kDa subunits, as already reported.
Blood samples were taken from donors using syringes with heparin. […] Enzyme purification was monitored using Ac-Met-7-amino-4-methylcoumarin (AMC) as substrate. Active fractions were analyzed by SDS-PAGE (12%) in order to evaluate the enrichment of the protein during the various purification steps. […]

APEH [2] = test: APEH partially purified from human blood cells (0.7 μg, 24.000 total units) in Tris-HCl 25 mM pH 7.5; conditions: 37 °C, up to 48 h
truncated form of APEH = conditions: cited from earlier work
APEH [3] = conditions: cited from earlier work

inhibition of APEH activity [1]: totally inhibited
Compound: CC(C)CC(O)(CC(C)C)c1cnn(C(=O)N2CCCC2)n1 [AA74-1]

Compound: Ac-EYM(ox)FM(ox)QKYPHTHLVQQA-NH2
cleaved bond (APEH [2]): H59-L60, major; also recorded: Q62-Q; also recorded: L60-V

Compound: Ac-EYMFMQKYPHTHLVQQA-NH2
not cleaved (APEH [2]): No cleavage was observed; N.D. (not degraded) after 48 h

Compound: GIVEQC(ox)C(ox)ASVC(ox)SLYQLENYC(ox)N
cleaved bond (truncated form of APEH): A-S and Y-Q

Compound: …^205FGERALKAWSVARL ↓ SQKFPKAEF^227… …^397LGEYGFQNALIVRY ↓ TRKVPQVST^419… …^493DETYVPKAFDEKLF ↓ TFHADICTL^515…
cleaved bond (APEH [3]): L-S and Y-T and F-T
